# Source: patent US20200022963A1, “PHARMACEUTICAL COMPOSITION COMPRISING BETAHISTINE” (Otolanum AG, priority 2017, published 2020)
# Columns and labels:
# [1] = Single-dose and repeat-dose intranasal toxicology study in beagle dogs (safety); format: in vivo; conditions: dog
# Source text: Salivation after betahistine treatment was previously reported to occur in dogs, it was transient in nature in the present study and resolved quickly. Body weights, clinical pathology and gross necropsy findings were unremarkable.
# [2] = Single ascending-dose clinical trial of intranasal betahistine in healthy volunteers (safety); format: in vivo; conditions: human
# Method: The safety and pharmacokinetic profile of intranasal betahistine was further evaluated in a double-blind, randomized, placebo-controlled, single ascending-dose clinical trial involving a total of 32 healthy male and female volunteers. The main inclusion criteria were that subjects had to be aged 18-45 years and show a body mass index within the range of 18-30 kg/m^2. Subjects were required to fast for 8 hours prior to study drug administration and for 2 hours post-dose.
# The betahistine was supplied as a 50 and 200 mg/mL solution in a HDPE bottle and spray pump pack (Aptar Classic Line) that delivers an accurate 100 μL per actuation. The study drug was delivered into the right nostril of subjects while they were in a supine position. For the 5 and 20 mg doses, one application of 50 and 200 mg/mL, respectively, was needed, whereas for the 10 and 40 mg doses, two applications of 50 and 200 mg/mL were required.
# [3] = Relative bioavailability of intranasal versus oral betahistine in humans, Example 6; format: in vivo; conditions: human
# Method: (Journal of Psychopharmacology, 2016, Vol. 30(3) 237-241). In brief, in this study, forty-eight healthy women were recruited and randomized to receive per os (i.e. orally) either betahistine 144 mg/day (48 mg t.i.d.) or matching placebo for 4 weeks. […] Study medication (betahistine or matching placebo) was administered at least 30 minutes prior to eating. On Day 8, blood samples of 6 mL each were collected at 8 am, and 30, 60, 150 and 300 minutes thereafter. Plasma concentrations of betahistine and its metabolite 2-PAA were determined by high-performance liquidy chromatography.
# [4] = Oral betahistine study in healthy women, Barak et al.; format: in vivo; conditions: human, oral 48 mg (0.8 mg/kg), Barak et al. data
# Method: For the calculation of the relative bioavailability of intranasal betahistine compared to peroral betahistine, the area under the concentration-time curve (AUC) determined in Example 3 was compared to the AUC determined in a study with oral betahistine in healthy volunteers described in Barak et al. (Journal of Psychopharmacology, 2016, Vol. 30(3) 237-241). In brief, in this study, forty-eight healthy women were recruited and randomized to receive per os (i.e. orally) either betahistine 144 mg/day (48 mg t.i.d.) or matching placebo for 4 weeks. Their mean weight was 60.2 kg in the active-treated group (n=24) and 59.8 kg in the placebo group (n=24). Study medication (betahistine or matching placebo) was administered at least 30 minutes prior to eating. On Day 8, blood samples of 6 mL each were collected at 8 am, and 30, 60, 150 and 300 minutes thereafter. Plasma concentrations of betahistine and its metabolite 2-PAA were determined by high-performance liquidy chromatography.
# [5] = both, beagle, dog, in vivo, 1 h
# Method: The safety and pharmacokinetic profile of intranasal betahistine was first evaluated in a single dose toxicology study in male and female beagle dogs (14-21 months of age, weight 8.2-11.8 kg). Both the vehicle and test article were delivered in a single dose via a nasal spray pump (Aptar Classic Line) with a delivery volume of 100 μL into both nostrils at total dose levels of 0 (vehicle), 4, 20 or 80 mg of betahistine dihydrochloride. Each treatment group was made up of 1 dog/sex.
# Plasma concentrations were measured with liquid chromatographic tandem mass spectrometry (LC-MS/MS; SCIEX API 5000 for betahistine and SCIEX API 4000 for 2-pyridylacetic acid (2-PAA)) with a validated method. Betahistine-^13CD3 dihydrochloride and 2-PAA-D4 hydrochloride served as internal standards. The standard calibration range—using a plasma sample volume of 0.05 mL—for betahistine was 0.05 to 50 ng/mL and for 2-PAA it was 1 to 1000 ng/mL. The limit of quantitation was 0.05 ng/mL for betahistine and 1.0 ng/mL for 2-PAA.
# In case of betahistine, the method involved a liquid-liquid extraction; in case of 2-PAA it involved protein precipitation. For betahistine, plasma samples were extracted under basic conditions with an organic solvent; the organic phase was dried and reconstituted in reconstitution solvent. Approximately 0.1 mL of the aqueous layer was transferred into polypropylene vials for LC-MS/MS analysis. For 2-PAA, plasma samples were precipitated with a mixture of organic solvents, supernatant was diluted and 0.12 mL was transferred into polypropylene vials for LC-MS/MS analysis. Sample analysis was conducted using reversed phase chromatography.
# [6] = human, cited from earlier work
# [7] = intranasal single and repeated dose
structure (smiles),measurement,setting,value
CNCCc1ccccn1 [betahistine],test article-related clinical signs,"[1]; intranasal 80 mg single dose and repeated dose 240 mg/day, transient",mild to moderate salivation
same,"body weights, clinical pathology and gross necropsy findings",[1]; [7],unremarkable
same,microscopic findings,[1]; [7],No adverse treatment-related microscopic findings
same,"hematology, biochemistry, urinalysis, vital signs and electrocardiogram assessments",[2]; active- versus placebo-treated subjects,no differences
same,tolerability,"[2]; intranasal 5, 10, 20 and 40 mg",well tolerated
same,bioavailability with intranasal administration higher than with oral administration,[3],20-40 times
same,relative bioavailability fold factor,[3]; 40 mg intranasal vs. 48 mg per os,41.1 ×
same,relative bioavailability of oral vs. intranasal,[3]; Barak et al. oral AUC vs Example 3 intranasal AUC,approximately 2.4%
same,Rel. Bioavail.,[3]; intranasal 5 mg relative to oral 48 mg (Barak et al.),19.9
same,Rel. Bioavail.,[3]; intranasal 10 mg relative to oral 48 mg (Barak et al.),24.2
same,Rel. Bioavail.,[3]; intranasal 20 mg relative to oral 48 mg (Barak et al.),37.0
same,Rel. Bioavail.,[3]; intranasal 40 mg relative to oral 48 mg (Barak et al.),41.1
same,AUC/Dose,[4],0.15 (h · ng/mL)/(mg/kg)
same,decline of plasma concentration,[5],more than 90%
same,AUC,"[6]; oral 48 mg (0.8 mg/kg), Barak et al. data",0.121 ng·h/mL
same,AUC(0-5h),"[6]; oral 48 mg t.i.d., approximately 0.8 mg/kg, Day 8, Barak et al.",0.121 ng·h/mL
